Test results published in patent US10101324B2, “Non-competitive immunoassays to detect small molecules using nanopeptamers” (priority 2012, dated 2018).

Columns and labels:
MoAb 5.6 = conditions: clomazone, Carlomagno et al. 2010; cited from earlier work
[1] = test system: anti-molinate monoclonal antibody (MoAb 14D7); assay: Cross-reactivity of the pA-Nanopeptamer noncompetitive ELISA with related thiocarbamate pesticides; assay type: binding
MoAb 14D7 = conditions: molinate; same antibody MoAb 14D7; Rufo et al. 2004; cited from earlier work

Row | Structure (SMILES) | Cross reactivity, pA-Nanopeptamer assay [1] | also measured
1 | CC1(C)CON(Cc2ccccc2Cl)C1=O [clomazone] | – | IC50 of the competitive format (MoAb 5.6): 0.028 ± 0.0011 µg/mL
2 | CCCCN(CC)C(=O)SCCC [Pebulate] | 6% | –
3 | CCN(CC)C(=O)SCc1ccc(Cl)cc1 [thiobencarb] | 0% | –
4 | CCSC(=O)N1CCCCCC1 [Molinate] | – | IC50 of the competitive ELISA (MoAb 14D7): 0.069 ± 0.0005 µg/mL
